Assay results from patent US9487502B2, “Chemical compounds” (Syngenta Limited, priority 2013, dated 2016).

Tests used:
Assay type in all cases: in vivo
Zea mays [1] = assay: Post-emergence herbicidal activity, ZEAMX; design: key: 5=total damage to plant; 0=no damage to plant; details: 1000 g/Ha, sprayed post-emergence (8 days cultivation), evaluated after 13 days, scale 0-5
Procedure: (§1) Seeds of a variety of test species were sown in standard soil in pots. After 8 days cultivation (post-emergence) under controlled conditions in a glasshouse (at 24/16° C., day/night; 14 hours light; 65% humidity), the plants were sprayed with an aqueous spray solution derived from the formulation of the technical active ingredient in acetone/water (50:50) solution containing 0.5% Tween 20 (polyoxyethelyene sorbitan monolaurate, CAS RN 9005-64-5). The test plants were then grown in a glasshouse under controlled conditions (at 24/16° C., day/night; 14 hours light; 65% humidity) and watered twice daily. After 13 days, the test was evaluated (5=total damage to plant; 0=no damage to plant).

Abutilon theophrasti [2] = assay: Post-emergence herbicidal activity, ABUTH; design: key: 5=total damage to plant; 0=no damage to plant; details: 1000 g/Ha, sprayed post-emergence (8 days cultivation), evaluated after 13 days, scale 0-5
Procedure: as §1

Alopecurus myosuroides [3] = assay: Pre-emergence herbicidal activity, ALOMY; details: 1000 g/Ha, sprayed pre-emergence, evaluated after 13 days, scale 0-5
Procedure: as §1, with “After” for “After 8 days”, “for one day (pre-emergence)” for “(post-emergence)”

Echinochloa crus-galli [4] = assay: Pre-emergence herbicidal activity, ECHCG; design: key: 5=total damage to plant; 0=no damage to plant; details: 1000 g/Ha, sprayed pre-emergence, evaluated after 13 days, scale 0-5
Procedure: as §1, with “After” for “After 8 days”, “for one day (pre-emergence)” for “(post-emergence)”

Zea mays [5] = assay: Pre-emergence herbicidal activity, ZEAMX; design: key: 5=total damage to plant; 0=no damage to plant; details: 1000 g/Ha, sprayed pre-emergence, evaluated after 13 days, scale 0-5
Procedure: as §1, with “After” for “After 8 days”, “for one day (pre-emergence)” for “(post-emergence)”

Echinochloa crus-galli [6] = assay: Post-emergence herbicidal activity, ECHCG; design: key: 5=total damage to plant; 0=no damage to plant; details: 1000 g/Ha, sprayed post-emergence (8 days cultivation), evaluated after 13 days, scale 0-5
Procedure: as §1

Alopecurus myosuroides [7] = assay: Post-emergence herbicidal activity, ALOMY; design: key: 5=total damage to plant; 0=no damage to plant; details: 1000 g/Ha, sprayed post-emergence (8 days cultivation), evaluated after 13 days, scale 0-5
Procedure: as §1

Setaria faberi [8] = assay: Pre-emergence herbicidal activity, SETFA; design: key: 5=total damage to plant; 0=no damage to plant; details: 1000 g/Ha, sprayed pre-emergence, evaluated after 13 days, scale 0-5
Procedure: as §1, with “After” for “After 8 days”, “for one day (pre-emergence)” for “(post-emergence)”

Amaranthus retroflexus [9] = assay: Pre-emergence herbicidal activity, AMARE; design: key: 5=total damage to plant; 0=no damage to plant; details: 1000 g/Ha, sprayed pre-emergence, evaluated after 13 days, scale 0-5
Procedure: as §1, with “After” for “After 8 days”, “for one day (pre-emergence)” for “(post-emergence)”

Amaranthus retroflexus [10] = assay: Post-emergence herbicidal activity, AMARE; design: key: 5=total damage to plant; 0=no damage to plant; details: 1000 g/Ha, sprayed post-emergence (8 days cultivation), evaluated after 13 days, scale 0-5
Procedure: as §1

Setaria faberi [11] = assay: Post-emergence herbicidal activity, SETFA; design: key: 5=total damage to plant; 0=no damage to plant; details: 1000 g/Ha, sprayed post-emergence (8 days cultivation), evaluated after 13 days, scale 0-5
Procedure: as §1

Abutilon theophrasti [12] = assay: Pre-emergence herbicidal activity, ABUTH; design: key: 5=total damage to plant; 0=no damage to plant; details: 1000 g/Ha, sprayed pre-emergence, evaluated after 13 days, scale 0-5
Procedure: as §1, with “After” for “After 8 days”, “for one day (pre-emergence)” for “(post-emergence)”

Compound	ZEAMX damage score, application post-emergence (Zea mays [1])	ABUTH damage score, application post-emergence (Abutilon theophrasti [2])	ALOMY damage score, application pre-emergence (Alopecurus myosuroides [3])	ECHCG damage score, application pre-emergence (Echinochloa crus-galli [4])	ZEAMX damage score, application pre-emergence (Zea mays [5])	ECHCG damage score, application post-emergence (Echinochloa crus-galli [6])	ALOMY damage score, application post-emergence (Alopecurus myosuroides [7])	SETFA damage score, application pre-emergence (Setaria faberi [8])	AMARE damage score, application pre-emergence (Amaranthus retroflexus [9])	AMARE damage score, application post-emergence (Amaranthus retroflexus [10])	SETFA damage score, application post-emergence (Setaria faberi [11])	ABUTH damage score, application pre-emergence (Abutilon theophrasti [12])
C=CCC1C(O)N(c2cc(C(C)(C)C)ncn2)C(=O)N1C (single isomer, unassigned) [Example A33]	3	5	4	5	3	5	5	4	5	5	5	5
CN1CC(O)N(c2cc(C(C)(C)C)ncn2)C1=O (stereo not drawn) [Example A1, 3-(6-tert-butylpyrimidin-4-yl)-4-hydroxy-1-methyl-imidazolidin-2-one]	5	5	4	5	4	5	5	5	5	5	5	5
CN1CC(O)N(c2cc(C(C)(C)C#N)ncn2)C1=O (stereo not drawn) [Example A2]	3	5	4	4	3	5	5	5	5	5	5	4
CC1C(O)N(c2cc(C(C)(C)C)ncn2)C(=O)N1C (stereo not drawn) [Example A3]	3	5	4	4	2	5	5	5	5	5	5	5
CN1C(=O)N(c2cc(C(C)(C)C)ncn2)C(O)C1O (stereo not drawn) [Example A4, 1-(6-tert-butylpyrimidin-4-yl)-4,5-dihydroxy-3-methyl-imidazolidin-2-one]	1	4	2	2	0	2	4	2	5	5	4	4
CCOC1C(O)N(c2cc(C(C)(C)C)ncn2)C(=O)N1C (stereo not drawn) [Example A5, 1-(6-tert-butylpyrimidin-4-yl)-4-ethoxy-5-hydroxy-3-methyl-imidazolidin-2-one]	4	5	4	5	2	5	5	5	5	5	5	5
